Test results published in patent EP1891948A1, “Treatment of neurological and neuropsychological disorders” (Probiodrug AG, priority 2000, dated 2002).

Key:
[1] = system: WistarF/Han (WF) rats; test: Response to novelty (open field test) after i.c.v. treatment; assay type: in vivo
Method: (§1) Animals. Male WistarF/Han (WF) rats (Central Animal Laboratory, Hannover Medical School, Hannover, Germany, see http://www.mh-hannover.de/institut/tierlabor/wf.htm for details), weighing 350-390g, were housed in a sound-proof, temperature controlled (24.0±0.5°C) room under specific pathogen free conditions with a 12/12h dark/light cycle (lights on at 07.00 with illumination level of 80 Lux). Food (Altromin lab chow pellets) and tap water were available ad libitum. Under ketamine/xylasine (100/5 mg/kg, i.p.) anesthesia, the rats were fixed in a Kopf stereotaxic frame and implanted with cannulae (Plastic One, Inc., Roanoke, VA, USA) above the lateral ventricle. All research and animal care procedures were approved by the Lower Saxony district government (Hannover, Germany) and followed principles described in the European Community's Council Directive of 24 November 1986 (86/609/EEC).
Surgery and i.c.v. application. For surgery, rats were anesthetized and prepared with i.c.v. cannulaes (coordinates: A:-0.7mm caudal, L:1.4mm lateral to bregma; and V:3.2mm ventral to the skull surface; tooth bar +3.0 above ear bars) using standard stereotaxic procedures as described in detail elsewhere (von Hörsten et al., 1998a,b,c). […]
Response to novelty (Open field test). […] Spontaneous activity during a single continuous test session of 15min was recorded using a video path analyzer system (E61-21 Video Path Analyser system, Coulboum instruments, PA, U.S.A.). […] Furthermore, the total incidence of fecal boli was counted after each session and the incidence and duration (sec) of grooming behavior was simultaneously recorded from a video monitor by a person blind to the treatment of the animals (von Hörsten et al., 1998c).
Statistical analysis. For statistical analysis, behavioral raw data from every test minute were analyzed by two-way analyses of variance (ANOVA) for repeated measures (factors: treatment and time as a repeated measurement). Data obtained as totals from a session were analyzed by one-way (factor: treatment) ANOVA. […]

[2] = system: WistarF/Han (WF) rats; test: 1h and 12h food intake after combined i.c.v. treatment (Example 3); assay type: in vivo; details: Fig. 8
Method: as §1, with “330-370g,” for “350-390g,”
Surgery and i.c.v. application. For surgery, rats were anesthetized and prepared with i.c.v. cannulae (coordinates: A:-0.7mm caudal, L:1.4mm lateral to bregma; and V3.2mm ventral to the skull surface; tooth bar +3.0 above ear bars) using standard stereotaxic procedures as described in detail elsewhere (von Hörsten et al., 1998a,b,c). After a 7-day recovery period, successful ventricle cannulation was confirmed by an angiotensin drinking response (von Hörsten et al., 1998a). Rats showing a positive drinking response (n=59) were then habituated to experimental handling by daily sham injections for seven days.
Animals were randomly divided into two sets of four experimental groups (n=5-6/group), which completed different consecutive SI test of anxiety. […] The time spent in active social interaction (SI-time), 1h and 12h food-intake were measured. […]
Statistical analysis. Data from repeated observations (food intake) were analyzed by two-way analyses of variance for repeated measures (ANOVA) (factors: "substrain" and "food intake" as repeated measure). Data obtained from simple measures such as DP IV activity or SI time were analyzed by one-way (factor: "substrain") ANOVA. […]

In the case of `CCC(C)C(N)C(=O)N1CCSC1` (centres unmarked) [isoleucyl thiazolidine], the “dosage already effective on time spent close to the wall” value ([1]; Fig. 5) is reported as 50 pmol, the “time spent close to the wall” value ([1]; sum of four consecutive minutes of open field testing, Fig. 5) is reported as “dose-dependent reduction” and the “activity in the open field (distance traveled)” value ([1]; wide range of dosages (0.05nmol, 5nmol, 500nmol), 60 min before test, Fig. 4) is reported as “no effect”. The “dose at which the 1h feeding effect reaches significance” value [2] was 0.05 nmol and the “amount of food eaten within 1h” value ([2]; single agents or combination, isoleucyl thiazolidine 5pmol-500nmol, NPY 50pmol-1.6nmol) was “mild feeding effect”.
